Results published in patent US11028075B2, “Therapeutic compounds and methods of use thereof” (GENENTECH, INC., priority 2018, dated 2021).
Counter-ions that a name gives are not always drawn.

Assays:
hNav1.7 [1] = target: T1, hNav1.7 (Homo sapiens (Human), UniProt Q15858); experiment: Electrophysiological assay (EP), voltage clamp on Syncropatch 384PE, CHO cells stably expressing Nav1.7; assay type: cell-based; conditions: holding potential −50 mV, 7.5 min compound incubation, read-out: EP_SP hNav1.7 EVO IC50
Summary of the method: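 Whole-cell automated patch clamp was run on CHO cells stably expressing human Nav1.7 cDNA, with internal solution CsCl/EGTA pH 7.2, external solution 80 mM NaCl pH 7.4, and 0.1% Pluronic F-127. From a −50 mV holding potential: −10 mV for 10 ms, −150 mV for 20 ms, then −10 mV for 10 ms, where current was measured. Inhibition was taken after 7.5 min compound incubation, with TTX added for full block.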
Target sequence in this assay (Q15858 other isoform, or with tags, fused parts or gaps): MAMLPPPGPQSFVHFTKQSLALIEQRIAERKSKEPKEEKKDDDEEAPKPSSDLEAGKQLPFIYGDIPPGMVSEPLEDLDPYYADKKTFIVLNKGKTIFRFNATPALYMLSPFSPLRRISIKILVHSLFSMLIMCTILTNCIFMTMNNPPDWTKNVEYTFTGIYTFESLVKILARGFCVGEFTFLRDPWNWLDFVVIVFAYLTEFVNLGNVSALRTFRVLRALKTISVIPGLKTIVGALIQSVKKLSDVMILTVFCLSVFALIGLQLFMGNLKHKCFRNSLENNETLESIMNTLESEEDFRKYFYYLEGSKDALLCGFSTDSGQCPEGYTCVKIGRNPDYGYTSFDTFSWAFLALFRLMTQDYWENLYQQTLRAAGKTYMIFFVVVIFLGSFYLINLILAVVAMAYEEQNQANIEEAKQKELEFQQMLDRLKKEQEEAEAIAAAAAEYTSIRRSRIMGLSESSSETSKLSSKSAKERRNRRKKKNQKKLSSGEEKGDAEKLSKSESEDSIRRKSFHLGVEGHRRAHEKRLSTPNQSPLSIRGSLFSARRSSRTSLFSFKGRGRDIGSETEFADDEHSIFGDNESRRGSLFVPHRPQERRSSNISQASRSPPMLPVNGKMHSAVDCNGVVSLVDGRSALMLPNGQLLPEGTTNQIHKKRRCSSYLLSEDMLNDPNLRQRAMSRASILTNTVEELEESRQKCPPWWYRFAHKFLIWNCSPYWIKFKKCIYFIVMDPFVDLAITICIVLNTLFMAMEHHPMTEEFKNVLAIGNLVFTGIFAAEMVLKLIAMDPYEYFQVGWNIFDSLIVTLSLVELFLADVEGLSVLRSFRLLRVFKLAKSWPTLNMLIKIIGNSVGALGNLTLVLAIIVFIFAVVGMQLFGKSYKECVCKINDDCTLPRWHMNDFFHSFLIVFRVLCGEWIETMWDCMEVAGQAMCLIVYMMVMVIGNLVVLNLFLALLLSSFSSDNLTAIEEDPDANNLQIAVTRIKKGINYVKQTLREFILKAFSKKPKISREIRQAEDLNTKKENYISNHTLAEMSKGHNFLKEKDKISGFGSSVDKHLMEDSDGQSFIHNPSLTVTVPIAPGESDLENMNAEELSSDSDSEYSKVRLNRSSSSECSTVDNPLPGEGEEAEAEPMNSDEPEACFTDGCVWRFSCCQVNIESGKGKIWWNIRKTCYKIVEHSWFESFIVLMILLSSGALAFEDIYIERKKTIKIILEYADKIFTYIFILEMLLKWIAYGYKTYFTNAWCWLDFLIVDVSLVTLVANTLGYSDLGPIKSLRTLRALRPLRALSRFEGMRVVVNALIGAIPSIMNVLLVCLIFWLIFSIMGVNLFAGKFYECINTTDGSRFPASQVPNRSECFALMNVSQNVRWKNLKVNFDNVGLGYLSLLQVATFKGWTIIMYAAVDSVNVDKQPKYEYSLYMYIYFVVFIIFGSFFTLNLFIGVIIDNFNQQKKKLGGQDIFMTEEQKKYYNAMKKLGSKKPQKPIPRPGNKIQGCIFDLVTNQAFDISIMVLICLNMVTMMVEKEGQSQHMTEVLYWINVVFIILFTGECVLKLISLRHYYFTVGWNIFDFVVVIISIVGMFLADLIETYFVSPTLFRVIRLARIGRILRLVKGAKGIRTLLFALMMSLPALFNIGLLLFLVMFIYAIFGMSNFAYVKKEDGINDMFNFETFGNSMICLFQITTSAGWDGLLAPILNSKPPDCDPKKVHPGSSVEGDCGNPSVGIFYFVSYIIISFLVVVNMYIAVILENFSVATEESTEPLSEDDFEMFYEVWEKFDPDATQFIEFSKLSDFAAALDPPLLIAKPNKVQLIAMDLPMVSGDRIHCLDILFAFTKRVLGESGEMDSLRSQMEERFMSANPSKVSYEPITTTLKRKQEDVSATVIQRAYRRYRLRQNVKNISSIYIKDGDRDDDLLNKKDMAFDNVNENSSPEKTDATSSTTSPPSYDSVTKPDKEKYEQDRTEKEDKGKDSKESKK

hNav1.7 [2] = target: T1, hNav1.7; experiment: Tritiated compound binding to membranes from cells heterologously expressing hNav1.7 and the β1 subunit (Nav1.7 LBA); conditions: competitive binding vs [3H]compound, membranes with hNav1.7 and β1 subunit; read-out: Nav1.7 LBA EVO IC50
Summary of the method: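 Membranes from cells expressing hNav1.7 with β1 were incubated at room temperature with a tritiated competitive Nav1.7 inhibitor plus test compound in 100 mM NaCl, 20 mM Tris pH 7.4, 0.01% BSA; nonspecific binding was set with 1 μM unlabeled compound. Incubation was 18 h with […] radioligand, or 3 h with […]. Bound ligand was filtered and counted, and IC50 came from a 4-parameter fit.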
Target sequence in this assay (Q15858 whole entry, looked up): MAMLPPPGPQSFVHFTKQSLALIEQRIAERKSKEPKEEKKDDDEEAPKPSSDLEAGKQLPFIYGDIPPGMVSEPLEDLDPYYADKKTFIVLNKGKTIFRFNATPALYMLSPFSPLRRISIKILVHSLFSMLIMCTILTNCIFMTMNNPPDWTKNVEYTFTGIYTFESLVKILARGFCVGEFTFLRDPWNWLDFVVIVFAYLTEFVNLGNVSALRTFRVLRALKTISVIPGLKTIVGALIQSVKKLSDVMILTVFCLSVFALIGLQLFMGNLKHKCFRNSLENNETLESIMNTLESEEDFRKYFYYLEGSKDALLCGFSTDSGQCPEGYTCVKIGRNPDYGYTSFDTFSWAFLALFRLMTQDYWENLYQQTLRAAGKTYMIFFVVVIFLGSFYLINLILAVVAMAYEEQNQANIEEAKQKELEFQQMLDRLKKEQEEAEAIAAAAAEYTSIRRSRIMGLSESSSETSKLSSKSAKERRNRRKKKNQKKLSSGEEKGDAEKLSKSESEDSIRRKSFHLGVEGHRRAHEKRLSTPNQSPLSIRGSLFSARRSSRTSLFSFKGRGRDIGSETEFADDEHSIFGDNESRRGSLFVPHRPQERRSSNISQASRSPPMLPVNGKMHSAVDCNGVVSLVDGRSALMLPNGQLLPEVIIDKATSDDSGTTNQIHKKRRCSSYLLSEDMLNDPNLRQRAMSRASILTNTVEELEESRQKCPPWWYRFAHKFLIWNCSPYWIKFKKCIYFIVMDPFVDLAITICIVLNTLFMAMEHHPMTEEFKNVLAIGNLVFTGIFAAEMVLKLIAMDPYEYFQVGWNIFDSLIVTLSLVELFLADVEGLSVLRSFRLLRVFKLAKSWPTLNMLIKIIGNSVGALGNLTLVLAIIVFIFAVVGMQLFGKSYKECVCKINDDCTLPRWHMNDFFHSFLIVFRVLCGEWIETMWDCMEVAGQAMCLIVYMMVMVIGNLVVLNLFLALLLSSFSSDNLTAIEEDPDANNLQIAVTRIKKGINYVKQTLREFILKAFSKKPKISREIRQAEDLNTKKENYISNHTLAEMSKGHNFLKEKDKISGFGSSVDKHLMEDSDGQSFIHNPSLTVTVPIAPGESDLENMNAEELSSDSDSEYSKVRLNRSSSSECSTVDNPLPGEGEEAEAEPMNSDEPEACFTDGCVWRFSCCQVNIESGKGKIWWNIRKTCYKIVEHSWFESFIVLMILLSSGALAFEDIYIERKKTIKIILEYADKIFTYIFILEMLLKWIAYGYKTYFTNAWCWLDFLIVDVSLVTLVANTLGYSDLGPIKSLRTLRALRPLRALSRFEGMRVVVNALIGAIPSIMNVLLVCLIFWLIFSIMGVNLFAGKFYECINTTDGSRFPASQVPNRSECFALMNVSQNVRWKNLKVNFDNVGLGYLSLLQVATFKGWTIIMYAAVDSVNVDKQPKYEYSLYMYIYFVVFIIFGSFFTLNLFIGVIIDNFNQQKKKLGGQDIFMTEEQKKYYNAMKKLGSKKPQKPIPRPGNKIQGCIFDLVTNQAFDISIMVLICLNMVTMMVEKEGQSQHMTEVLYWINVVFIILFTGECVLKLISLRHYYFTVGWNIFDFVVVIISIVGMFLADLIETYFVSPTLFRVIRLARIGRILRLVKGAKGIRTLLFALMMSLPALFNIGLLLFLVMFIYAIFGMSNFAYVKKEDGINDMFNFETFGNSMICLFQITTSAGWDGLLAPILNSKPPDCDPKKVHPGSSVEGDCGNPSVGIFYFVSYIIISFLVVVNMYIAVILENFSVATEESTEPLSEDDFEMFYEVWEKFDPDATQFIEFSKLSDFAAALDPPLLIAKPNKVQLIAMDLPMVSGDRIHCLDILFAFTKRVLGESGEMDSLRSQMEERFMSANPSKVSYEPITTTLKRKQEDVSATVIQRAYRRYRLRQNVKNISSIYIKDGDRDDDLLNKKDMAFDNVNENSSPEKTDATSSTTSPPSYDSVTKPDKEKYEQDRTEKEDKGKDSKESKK
Target sequence in this assay (Q07699 whole entry partner, looked up): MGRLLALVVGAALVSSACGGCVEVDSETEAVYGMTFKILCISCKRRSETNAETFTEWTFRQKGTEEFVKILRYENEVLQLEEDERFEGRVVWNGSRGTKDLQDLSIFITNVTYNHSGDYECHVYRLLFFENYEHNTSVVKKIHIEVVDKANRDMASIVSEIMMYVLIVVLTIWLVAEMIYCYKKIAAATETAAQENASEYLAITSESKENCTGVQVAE

Compound	IC50 (hNav1.7 [1])	IC50 (hNav1.7 [2])
CN1CC(C(=O)N(C)[C@H]2C[C@@H](c3cccc(C(F)(F)F)c3)CC[C@@H]2Nc2cc(F)c(S(=O)(=O)Nc3ccncn3)cc2Cl)C1 [Example 39, N-((1S,2S,5S)-2-((2-Chloro-5-fluoro-4-(N-(pyrimidin-4-yl)sulfamoyl)phenyl)amino)-5-(3-(trifluoromethyl)phenyl)cyclohexyl)-N,1-dimethylazetidine-3-carboxamide]	0.83 nM	2.07 nM
CN(C1CCC1)[C@H]1C[C@@H](c2cccc(C(F)(F)F)c2)CC[C@@H]1Nc1cc(F)c(S(=O)(=O)Nc2ccncn2)cc1F [Example 40, 4-(((1S,2S,4S)-2-(cyclobutyl(methyl)amino)-4-(3-(trifluoromethyl)phenyl)cyclohexyl)amino)-2,5-difluoro-N-(pyrimidin-4-yl)benzenesulfonamide formate]	0.905 nM	8.03 nM
CN(CCO)[C@H]1C[C@@H](c2cccc(C(F)(F)F)c2)CC[C@@H]1Nc1cc(F)c(S(=O)(=O)Nc2ccncn2)cc1Cl [Example 41, 5-chloro-2-fluoro-4-(((1S,2S,4S)-2-((2-hydroxyethyl)(methyl)amino)-4-(3-(trifluoromethyl)-phenyl)cyclohexyl)amino)-N-(pyrimidin-4-yl)benzenesulfonamide]	0.534 nM	0.623 nM
CN(C1CNC1)[C@H]1C[C@@H](c2cccc(C(F)(F)F)c2)CC[C@@H]1Nc1cc(F)c(S(=O)(=O)Nc2ccncn2)cc1Cl [Example 42, 4-(((1S,2S,4S)-2-(azetidin-3-yl(methyl)amino)-4-(3-(trifluoromethyl)phenyl)cyclohexyl)-amino)-5-chloro-2-fluoro-N-(pyrimidin-4-yl)benzenesulfonamide]	0.141 nM	0.657 nM
CN(C)[C@H]1C[C@@H](c2cccc(OC3CC3)c2)CC[C@@H]1Nc1cc(F)c(S(=O)(=O)Nc2ccncn2)cc1Cl [Example 43]	1.12 nM	7 nM
CN(C)[C@H]1C[C@@H](c2cccc(C3COC3)c2)CC[C@@H]1Nc1cc(F)c(S(=O)(=O)Nc2ccncn2)cc1Cl [Example 44, 5-chloro-4-(((1S,2S,4S)-2-(dimethylamino)-4-(3-(oxetan-3-yl)phenyl)cyclohexyl)amino)-2-fluoro-N-(pyrimidin-4-yl)benzenesulfonamide]	9.11 nM	45.8 nM
CN1CC(N(C)[C@H]2C[C@@H](c3cccc(C(F)(F)F)c3)CC[C@@H]2Nc2cc(F)c(S(=O)(=O)Nc3ccncn3)cc2Cl)C1 [Example 45, 5-chloro-2-fluoro-4-(((1S,2S,4S)-2-(methyl(1-methylazetidin-3-yl)amino)-4-(3-(trifluoromethyl)phenyl)cyclohexyl)amino)-N-(pyrimidin-4-yl)benzenesulfonamide]	0.241 nM	0.399 nM
O=S(=O)(Nc1ccncn1)c1cc(O)c(N[C@H]2CC[C@H](c3cccc(C(F)(F)F)c3)C[C@@H]2N2CCCC2)cc1F [Example 46, 2-Fluoro-5-hydroxy-N-(pyrimidin-4-yl)-4-(((1S,2S,4S)-2-(pyrrolidin-1-yl)-4-(3-(trifluoromethyl)-phenyl)cyclohexyl)amino)benzenesulfonamide formate]	1.9 nM	24.5 nM
O=S(=O)(Nc1ccncn1)c1cc2c(cc1F)N([C@H]1CC[C@H](c3cccc(C(F)(F)F)c3)C[C@@H]1N1CCCC1)CCO2 [Example 47, 6-Fluoro-N-(pyrimidin-4-yl)-4-((1S,2S,4S)-2-(pyrrolidin-1-yl)-4-(3-(trifluoromethyl)phenyl)-cyclohexyl)-3,4-dihydro-2H-benzo[b][1,4]oxazine-7-sulfonamide]	1.16 nM	0.794 nM
CN(C)[C@H]1C[C@@H](c2cccc(C(F)(F)F)c2)CC[C@@H]1Oc1cc(F)c(S(=O)(=O)Nc2ccncn2)cc1F [Example 48, 4-(((1S,2S,4S)-2-(dimethylamino)-4-(3-(trifluoromethyl)phenyl)cyclohexyl)oxy)-2,5-difluoro-N-(pyrimidin-4-yl)benzenesulfonamide formate]	3.34 nM	37.7 nM
O=C1COc2cc(S(=O)(=O)Nc3ccncn3)c(F)cc2N1[C@H]1CC[C@H](c2cccc(C(F)(F)F)c2)C[C@@H]1N1CCCC1 [Example 49, 6-Fluoro-3-oxo-N-(pyrimidin-4-yl)-4-((1S,2S,4S)-2-(pyrrolidin-1-yl)-4-(3-(trifluoromethyl)-phenyl)cyclohexyl)-3,4-dihydro-2H-benzo[b][1,4]oxazine-7-sulfonamide]	2.73 nM	23.6 nM
O=S(=O)(Nc1ccncn1)c1cc(F)c(N[C@H]2CC[C@H](c3cc(C(F)(F)F)ccc3F)C[C@@H]2N2CCCC2)cc1F [Example 50, 2,5-difluoro-4-(((1S,2S,4S)-4-(2-fluoro-5-(trifluoromethyl)phenyl)-2-(pyrrolidin-1-yl)cyclohexyl)amino)-N-(pyrimidin-4-yl)benzenesulfonamide]	1.21 nM	3.88 nM
CN(C)[C@H]1C[C@@H](c2cccc(C(F)(F)F)c2)CC[C@@H]1N(C)c1cc(F)c(S(=O)(=O)Nc2ccncn2)cc1Cl [Example 51, 5-Chloro-4-(((1S,2S,4S)-2-(dimethylamino)-4-(3-(trifluoromethyl)phenyl)cyclohexyl)-(methyl)amino)-2-fluoro-N-(pyrimidin-4-yl)benzenesulfonamide formate]	4.65 nM	169 nM
CN(C)[C@H]1C[C@@H](c2cccc(C(F)(F)F)c2)CC[C@@H]1N1CCCc2cc(S(=O)(=O)Nc3ccncn3)c(F)cc21 [Example 54, 1-((1S,2S,4S)-2-(Dimethylamino)-4-(3-(trifluoromethyl)phenyl)cyclohexyl)-7-fluoro-N-(pyrimidin-4-yl)-1,2,3,4-tetrahydroquinoline-6-sulfonamide]	1.41 nM	0.604 nM
CN(C)[C@H]1C[C@@H](c2cccc(C(F)(F)F)c2)CC[C@@H]1N1C(=O)CCc2cc(S(=O)(=O)Nc3ccncn3)c(F)cc21 [Example 55, 1-((1S,2S,4S)-2-(Dimethylamino)-4-(3-(trifluoromethyl)phenyl)cyclohexyl)-7-fluoro-2-oxo-N-(pyrimidin-4-yl)-1,2,3,4-tetrahydroquinoline-6-sulfonamide]	2.68 nM	6.73 nM
CN(C)[C@H]1C[C@@H](c2cccc(C(F)(F)F)c2)CC[C@@H]1Oc1cc(F)c(S(=O)(=O)Nc2ccncn2)cc1Br [Example 56, 5-Bromo-4-(((1S,2S,4S)-2-(dimethylamino)-4-(3-(trifluoromethyl)phenyl)cyclohexyl)oxy)-2-fluoro-N-(pyrimidin-4-yl)benzenesulfonamide]	0.528 nM	1.92 nM
CN(C)[C@H]1C[C@@H](c2cccc(C(F)(F)F)c2)CC[C@@H]1Oc1ccc(S(=O)(=O)Nc2ccncn2)c(F)c1 [Example 57, 4-(((1S,2S,4S)-2-(Dimethylamino)-4-(3-(trifluoromethyl)phenyl)cyclohexyl)oxy)-2-fluoro-N-(pyrimidin-4-yl)benzenesulfonamide formate]	2.59 nM	35.3 nM
O=S(=O)(Nc1ccncn1)c1cc(F)c(O[C@H]2CC[C@H](c3cccc(C(F)(F)F)c3)C[C@@H]2N2CCCC2)cc1F [Example 58, 2,5-difluoro-N-(pyrimidin-4-yl)-4-(((1S,2S,4S)-2-(pyrrolidin-1-yl)-4-(3-(trifluoromethyl)-phenyl)cyclohexyl)oxy)benzenesulfonamide]	2.73 nM	22.7 nM
CN(C)[C@H]1C[C@@H](c2cccc(OC(F)(F)F)c2)CC[C@@H]1Oc1cc(F)c(S(=O)(=O)Nc2ccncn2)cc1F [Example 59, 4-(((1S,2S,4S)-2-(dimethylamino)-4-(3-(trifluoromethoxy)phenyl)cyclohexyl)oxy)-2,5-difluoro-N-(pyrimidin-4-yl)benzenesulfonamide formate]	1.62 nM	32.6 nM
O=S(=O)(Nc1ccncn1)c1cc(Cl)c(O[C@H]2CC[C@H](c3cccc(C(F)(F)F)c3)C[C@@H]2N2CCCC2)cc1F [Example 60, 5-chloro-2-fluoro-N-(pyrimidin-4-yl)-4-(((1S,2S,4S)-2-(pyrrolidin-1-yl)-4-(3-(trifluoromethyl)-phenyl)cyclohexyl)oxy)benzenesulfonamide formate]	0.745 nM	1.6 nM
O=S(=O)(Nc1ccncn1)c1cc(F)c(N[C@H]2CC[C@H](c3cccc(OC(F)(F)F)c3)C[C@@H]2N2CCCC2)cc1F [Example 61, 2,5-difluoro-N-(pyrimidin-4-yl)-4-(((1S,2S,4S)-2-(pyrrolidin-1-yl)-4-(3-(trifluoromethoxy)-phenyl)cyclohexyl)amino)benzenesulfonamide formate]	0.322 nM	1.54 nM
O=S(=O)(Nc1ccncn1)c1cc(F)c(N[C@H]2CC[C@H](c3cccc(C(F)(F)F)c3)C[C@@H]2N2CCCCC2)cc1F [Example 62, 2,5-difluoro-4-(((1S,2S,4S)-2-(piperidin-1-yl)-4-(3-(trifluoromethyl)phenyl)cyclohexyl)-amino)-N-(pyrimidin-4-yl)benzenesulfonamide formate]	0.628 nM	0.816 nM
CN[C@H]1C[C@@H](c2cccc(C(F)(F)F)c2)CC[C@@H]1Oc1cc(F)c(S(=O)(=O)Nc2ccncn2)cc1Cl [Example 63, 5-chloro-2-fluoro-4-(((1S,2S,4S)-2-(methylamino)-4-(3-(trifluoromethyl)phenyl)-cyclohexyl)oxy)-N-(pyrimidin-4-yl)benzenesulfonamide]	0.709 nM	11.2 nM
